{"source": "DBAASP", "assay_in_all_cases": "≥ marks a high value that may be exact or a test limit, other limits are often not marked, values filed in µg/mL are converted to µM", "key": {"[1]": {"system": "Pseudomonas aeruginosa PA14"}, "[2]": {"system": "Klebsiella pneumoniae WGLW2"}, "[3]": {"system": "Acinetobacter baumannii ATCC 7978"}, "[4]": {"system": "Staphylococcus aureus ATCC 29231"}, "[5]": {"system": "Candida albicans ATCC 64550"}, "[6]": {"system": "Escherichia coli ATCC 25922"}, "[7]": {"system": "Bacillus subtilis ATCC 23857"}, "[8]": {"system": "Pseudomonas aeruginosa ATCC 27853"}, "[9]": {"system": "Staphylococcus aureus ATCC 25923"}, "[10]": {"system": "Pseudomonas aeruginosa PAO1"}, "[11]": {"system": "Candida albicans F7-39/IDE99"}, "Staphylococcus aureus": {"system": "Staphylococcus aureus"}, "Bacillus subtilis 168": {"system": "Bacillus subtilis 168"}, "[12]": {"system": "Staphylococcus epidermidis"}, "[13]": {"system": "Staphylococcus aureus ATCC 43300"}, "Staphylococcus aureus 1": {"system": "Staphylococcus aureus 1"}, "[14]": {"system": "Micrococcus luteus CCM 144"}, "Pseudomonas aeruginosa": {"system": "Pseudomonas aeruginosa"}, "Escherichia coli B": {"system": "Escherichia coli B"}, "[15]": {"system": "Staphylococcus aureus ATCC 2592"}, "Shigella dysenteriae": {"system": "Shigella dysenteriae"}, "[16]": {"system": "Candida albicans ATCC 2002"}, "[17]": {"system": "Bacillus subtilis ATCC 6633"}, "Proteus mirabilis": {"system": "Proteus mirabilis"}, "Micrococcus luteus": {"system": "Micrococcus luteus"}, "Saccharomyces cerevisiae": {"system": "Saccharomyces cerevisiae"}, "Escherichia coli": {"system": "Escherichia coli"}, "Candida albicans": {"system": "Candida albicans"}, "Serratia marcescens": {"system": "Serratia marcescens"}, "Bacillus subtilis": {"system": "Bacillus subtilis"}, "Salmonella typhimurium": {"system": "Salmonella typhimurium"}, "[18]": {"system": "Klebsiella pneumoniae ATCC 13883"}, "[19]": {"system": "Streptococcus pyogenes ATCC 19615"}, "[20]": {"system": "Staphylococcus aureus ST1065"}, "Escherichia coli ML-35p": {"system": "Escherichia coli ML-35p"}, "[21]": {"system": "Candida parapsilosis ATCC 22019"}, "[22]": {"system": "Acinetobacter baumannii ATCC 19606"}, "[23]": {"system": "Enterococcus faecalis ATCC 29212"}, "[24]": {"system": "Staphylococcus aureus ATCC BAA-44"}}, "data": [{"smiles": "CC[C@H](C)[C@H](NC(=O)[C@H](CCCCN)NC(=O)[C@H](Cc1c[nH]c2ccccc12)NC(=O)[C@H](Cc1c[nH]c2ccccc12)NC(=O)[C@@H](NC(=O)[C@H](CCCCN)NC(=O)[C@H](Cc1c[nH]c2ccccc12)NC(=O)[C@@H](N)CC(C)C)[C@@H](C)CC)C(=O)N[C@@H](Cc1c[nH]c2ccccc12)C(=O)N[C@@H](CCCN=C(N)N)C(=O)N[C@H](C(=O)N[C@@H](Cc1c[nH]c2ccccc12)C(=O)N[C@@H](Cc1c[nH]c2ccccc12)C(=O)N[C@@H](CC(N)=O)C(=O)N[C@@H](Cc1c[nH]c2ccccc12)C(=O)N[C@@H](CCCN=C(N)N)C(=O)O)C(C)C", "note": "[LWKIWWKIWRVWWNWR]", "values": [{"measurement": "MIC", "setting": "[1]", "result": "≥ 52.4", "unit": "µM"}, {"measurement": "MIC", "setting": "[2]", "result": "≥ 52.4", "unit": "µM"}, {"measurement": "MIC", "setting": "[3]", "result": "≥ 52.4", "unit": "µM"}, {"measurement": "MIC", "setting": "[4]", "result": "≥ 52.4", "unit": "µM"}]}, {"smiles": "CC(C)C[C@H](NC(=O)[C@H](CC(C)C)NC(=O)[C@H](CCCCN)NC(=O)[C@H](CCCCN)NC(=O)[C@H](Cc1c[nH]c2ccccc12)NC(=O)[C@H](Cc1c[nH]c2ccccc12)NC(=O)[C@H](CCCCN)NC(=O)[C@H](CC(C)C)NC(=O)[C@H](CC(C)C)NC(=O)[C@@H](N)CCCCN)C(N)=O", "note": "[KLLKWWKKLL]", "values": [{"measurement": "MIC", "setting": "[5]", "result": 12.5, "unit": "µM"}, {"measurement": "MIC", "setting": "[6]", "result": 16, "unit": "µM"}, {"measurement": "MIC", "setting": "[7]", "result": 8, "unit": "µM"}, {"measurement": "MIC", "setting": "[8]", "result": 8, "unit": "µM"}, {"measurement": "MIC", "setting": "[9]", "result": 16, "unit": "µM"}]}, {"smiles": "CC[C@H](C)[C@H](NC(=O)[C@H](CCCN=C(N)N)NC(=O)[C@H](CC(C)C)NC(=O)[C@H](CCCN=C(N)N)NC(=O)[C@@H](N)C(C)C)C(=O)N[C@@H](CCCN=C(N)N)C(=O)N[C@H](C(=O)N[C@@H](C)C(N)=O)C(C)C", "note": "[VRLRIRVA]", "values": [{"measurement": "MIC", "setting": "[5]", "result": 25, "unit": "µM"}, {"measurement": "MIC", "setting": "[10]", "result": 10.2, "unit": "µM"}]}, {"smiles": "CC[C@H](C)[C@H](NC(=O)CN)C(=O)N[C@@H](CC(C)C)C(=O)N[C@@H](CCCCN)C(=O)N[C@@H](CO)C(=O)N[C@@H](CC(C)C)C(=O)N[C@@H](CC(C)C)C(=O)N[C@@H](CCCCN)C(=O)N[C@@H](CCCCN)C(=O)N[C@@H](CC(C)C)C(=O)N[C@@H](CCCCN)C(=O)N[C@@H](CCCCN)C(=O)N[C@H](C(=O)N[C@H](C(=O)N[C@@H](C)C(=O)N[C@@H](CCCCN)C(N)=O)[C@@H](C)CC)[C@@H](C)CC", "note": "[GILKSLLKKLKKIIAK]", "values": [{"measurement": "MIC", "setting": "[11]", "result": 24, "unit": "µM"}, {"measurement": "MIC", "setting": "Staphylococcus aureus", "result": 10, "unit": "µM"}, {"measurement": "MIC", "setting": "Bacillus subtilis 168", "result": 7, "unit": "µM"}, {"measurement": "MIC", "setting": "[12]", "result": 2.2, "unit": "µM"}, {"measurement": "MIC", "setting": "[13]", "result": 17, "unit": "µM"}, {"measurement": "MIC", "setting": "Staphylococcus aureus 1", "result": 4.3, "unit": "µM"}, {"measurement": "MIC", "setting": "[8]", "result": 5, "unit": "µM"}, {"measurement": "MIC", "setting": "[14]", "result": 3, "unit": "µM"}, {"measurement": "MIC", "setting": "Pseudomonas aeruginosa", "result": 8.9, "unit": "µM"}, {"measurement": "MIC", "setting": "Escherichia coli B", "result": 10, "unit": "µM"}]}, {"smiles": "CC(C)C[C@H](NC(=O)CNC(=O)[C@@H](NC(=O)[C@H](CCCCN)NC(=O)CNC(=O)[C@H](C)NC(=O)[C@H](Cc1c[nH]c2ccccc12)NC(=O)[C@H](CCCCN)NC(=O)[C@H](CC(C)C)NC(=O)[C@H](CC(C)C)NC(=O)[C@H](Cc1ccccc1)NC(=O)[C@H](CCCCN)NC(=O)[C@H](CC(C)C)NC(=O)[C@@H](NC(=O)[C@H](Cc1ccccc1)NC(=O)[C@@H](N)Cc1ccccc1)C(C)C)C(C)C)C(=O)N[C@@H](CCC(=O)O)C(=O)N[C@@H](Cc1cnc[nH]1)C(=O)N[C@@H](CC(C)C)C(=O)N[C@@H](C)C(=O)N[C@H]1CSSC[C@@H](C(=O)O)NC(=O)[C@H](Cc2c[nH]c3ccccc23)NC(=O)[C@H](CC(N)=O)NC(=O)[C@H](CCCCN)NC(=O)[C@H](Cc2ccccc2)NC(=O)[C@H](CCCCN)NC1=O", "note": "[FFVLKFLLKWAGKVGLEHLACKFKNWC]", "values": [{"measurement": "MIC", "setting": "[15]", "result": 3.87, "unit": "µM"}, {"measurement": "MIC", "setting": "[6]", "result": 1.94, "unit": "µM"}, {"measurement": "MIC", "setting": "Shigella dysenteriae", "result": 0.465, "unit": "µM"}, {"measurement": "MIC", "setting": "[16]", "result": 3.87, "unit": "µM"}, {"measurement": "MIC", "setting": "[17]", "result": 0.465, "unit": "µM"}]}, {"smiles": "CC[C@H](C)[C@H](NC(=O)CN)C(=O)N[C@@H](CC(C)C)C(=O)N[C@@H](CC(=O)O)C(=O)N[C@H](C(=O)N[C@@H](CC(C)C)C(=O)N[C@@H](CCCCN)C(=O)N[C@@H](CCC(N)=O)C(=O)N[C@@H](Cc1ccccc1)C(=O)N[C@@H](C)C(=O)N[C@@H](CCCCN)C(=O)NCC(=O)N[C@H](C(=O)NCC(=O)N[C@@H](CCCCN)C(=O)N[C@@H](CC(=O)O)C(=O)N[C@@H](CC(C)C)C(=O)N[C@H](C(=O)N[C@@H](CCCCN)C(=O)NCC(=O)N[C@@H](C)C(=O)N[C@@H](C)C(=O)N[C@@H](CCC(N)=O)C(=O)NCC(=O)N[C@H](C(=O)O)C(C)C)C(C)C)C(C)C)[C@@H](C)O", "note": "[GILDTLKQFAKGVGKDLVKGAAQGV]", "values": [{"measurement": "MIC", "setting": "Proteus mirabilis", "result": 19.9, "unit": "µM"}, {"measurement": "MIC", "setting": "Micrococcus luteus", "result": 1.99, "unit": "µM"}, {"measurement": "MIC", "setting": "Saccharomyces cerevisiae", "result": 19.9, "unit": "µM"}, {"measurement": "MIC", "setting": "[12]", "result": 29.8, "unit": "µM"}, {"measurement": "MIC", "setting": "Escherichia coli", "result": 19.9, "unit": "µM"}, {"measurement": "MIC", "setting": "Shigella dysenteriae", "result": 19.9, "unit": "µM"}, {"measurement": "MIC", "setting": "Candida albicans", "result": "> 39.8", "unit": "µM"}, {"measurement": "MIC", "setting": "Serratia marcescens", "result": "≥ 39.8", "unit": "µM"}, {"measurement": "MIC", "setting": "Bacillus subtilis", "result": "≥ 39.8", "unit": "µM"}, {"measurement": "MIC", "setting": "Salmonella typhimurium", "result": "≥ 39.8", "unit": "µM"}, {"measurement": "MIC", "setting": "Pseudomonas aeruginosa", "result": 39.8, "unit": "µM"}]}, {"smiles": "CC[C@H](C)[C@H](NC(=O)[C@H](Cc1cnc[nH]1)NC(=O)[C@@H]1CCCN1C(=O)[C@@H](NC(=O)[C@H](CCSC)NC(=O)[C@H](CO)NC(=O)[C@H](CC(C)C)NC(=O)[C@@H](N)Cc1ccccc1)[C@@H](C)CC)C(=O)N[C@H](C(=O)N[C@@H](CO)C(=O)NCC(=O)N[C@H](C(=O)N[C@@H](C)C(=O)N[C@@H](C)C(=O)N[C@@H](CC(C)C)C(=O)N[C@@H](C)C(=O)N[C@@H](CCCCN)C(=O)N[C@@H](Cc1cnc[nH]1)C(=O)N[C@@H](CC(C)C)C(N)=O)C(C)C)C(C)C", "note": "[FLSMIPHIVSGVAALAKHL]", "values": [{"measurement": "MIC", "setting": "[18]", "result": 25, "unit": "µM"}, {"measurement": "MIC", "setting": "[19]", "result": 3.12, "unit": "µM"}, {"measurement": "MIC", "setting": "[20]", "result": 6.25, "unit": "µM"}, {"measurement": "MIC", "setting": "[6]", "result": 25, "unit": "µM"}, {"measurement": "MIC", "setting": "Saccharomyces cerevisiae", "result": 12.5, "unit": "µM"}, {"measurement": "MIC", "setting": "Escherichia coli ML-35p", "result": 25, "unit": "µM"}, {"measurement": "MIC", "setting": "[21]", "result": "≥ 50", "unit": "µM"}, {"measurement": "MIC", "setting": "[22]", "result": 6.25, "unit": "µM"}, {"measurement": "MIC", "setting": "[23]", "result": 50, "unit": "µM"}, {"measurement": "MIC", "setting": "[13]", "result": 6.25, "unit": "µM"}, {"measurement": "MIC", "setting": "[8]", "result": 100, "unit": "µM"}, {"measurement": "MIC", "setting": "[9]", "result": 6.25, "unit": "µM"}, {"measurement": "MIC", "setting": "[24]", "result": 6.25, "unit": "µM"}]}, {"smiles": "CC[C@H](C)[C@H](NC(=O)CN)C(=O)N[C@@H](CCSC)C(=O)N[C@@H](CO)C(=O)N[C@@H](CO)C(=O)N[C@@H](CC(C)C)C(=O)N[C@@H](CCSC)C(=O)N[C@@H](CCCCN)C(=O)N[C@@H](CCCCN)C(=O)N[C@@H](CC(C)C)C(=O)N[C@@H](CCCCN)C(=O)N[C@@H](CCCCN)C(=O)N[C@H](C(=O)N[C@H](C(=O)N[C@@H](CCCCN)C(=O)N[C@@H](CCCCN)C(N)=O)[C@@H](C)CC)[C@@H](C)CC", "note": "[GIMSSLMKKLKKIIKK]", "values": [{"measurement": "MIC", "setting": "[11]", "result": 6.3, "unit": "µM"}, {"measurement": "MIC", "setting": "Staphylococcus aureus", "result": 65, "unit": "µM"}, {"measurement": "MIC", "setting": "Bacillus subtilis 168", "result": 7, "unit": "µM"}, {"measurement": "MIC", "setting": "[12]", "result": 1.7, "unit": "µM"}, {"measurement": "MIC", "setting": "[13]", "result": 54, "unit": "µM"}, {"measurement": "MIC", "setting": "Staphylococcus aureus 1", "result": 18, "unit": "µM"}, {"measurement": "MIC", "setting": "[8]", "result": 7.1, "unit": "µM"}, {"measurement": "MIC", "setting": "[14]", "result": 3, "unit": "µM"}, {"measurement": "MIC", "setting": "Pseudomonas aeruginosa", "result": 9.9, "unit": "µM"}, {"measurement": "MIC", "setting": "Escherichia coli B", "result": 22, "unit": "µM"}]}]}
